System: lung ILC2s
Experiment: In vitro stimulation of murine lung ILC2s, IL-5 and IL-13 by ELISA, viability by 7-AAD
Type: cell-based, mouse
Description: FIGS. 2A-2C: α7nAChR agonist suppresses IL-5 and IL-13 production from ILC2s in vitro. BALB/cByJ mice were intranasally challenged with recombinant mouse IL-33 on days 1-3. On day 4 lung ILC2s were isolated and re-stimulated with rIL-33, rIL-2 and rIL-7 with or without α7nAChR agonist (2.5, 10 and 50 μg mL^−1) for 24 hours (FIG. 2A) or 48 hours (FIG. 2B). The levels of IL-5 and IL-13 were measured by ELISA. The viability of cultured ILC2s were assessed by staining with 7-AAD. (FIG. 2C) BALB/cByJ mice were intranasally challenged with recombinant mouse IL-33 on days 1-3, with or without α7nAChR agonist administration. On day 4 lung ILC2s were isolated and the number of IL-5^+ and IL-13^+ cells per 40×10^4 ILC2s were quantified. Values are expressed as the mean±SEM of five experiments (n=5; Student's t test *, p<0.05; **p<0.01).
FIG. 10: α7nAChR agonist suppresses cytokine production in ILC2s. Lung ILC2s were sorted from naïve BALB/cByJ mice and cultured with rm-IL-25 (10 ng mL−1) in the presence or absence of α7nAChR (10 μg mL−1) agonist for 24 hours. The levels of IL-5 and IL-13 were measured by ELISA. Data are representative of at least two independent experiments and are presented as means±SEM (n=4; Student's t test *, p<0.05).
Nicotine is known as a major constituent of cigarette smoke, which causes impairment of lung function and exacerbation of asthma. […] To address this question quantitatively, pulmonary ILC2s were isolated and cultured with increasing doses (2.5, 10 and 50 μg mL^−1) of α7nAChR agonist in the presence of rm-IL-33, rm-IL-2 and rm-IL-7. […] To verify that the actions of the agonist were not due to a reduction in the number of ILC2s, Applicants administered IL-33 to mice in vivo with or without agonist treatment, and then quantified the number of IL-5^+ and IL-13^+ ILC2s within a determined number of ILC2s (FIG. 2C). […]
Murine ILC2s were isolated from BALB/cByJ mice to >95% purity using the FACSARIA III cell sorter. […] Levels of cytokines were measured by ELISA (eBioscience), according to the manufacturer's instructions.

Structure (SMILES): COc1ccc(/C=C2\CCCN=C2c2cccnc2)c(OC)c1 [GTS-21, 3-[(3E)-3-[(2,4-dimethoxyphenyl)methylidene]-5,6-dihydro-4H-pyridin-2-yl]pyridine]
- viability of cultured ILC2s (7-AAD) (agonist 2.5, 10 and 50 μg mL−1, 24 or 48 hours): independent of cell viability except at the highest tested dose
- IL-25-induced cytokine secretion (IL-5 and IL-13) (rm-IL-25 10 ng mL−1, agonist 10 μg mL−1, 24 hours): susceptible to suppression
- IL-5 and IL-13 production from ILC2s (ELISA) (rm-IL-33, rm-IL-2, rm-IL-7, agonist 2.5, 10 and 50 μg mL−1, 24 or 48 hours): dose-dependent anti-inflammatory effects

Reference: patent publication US20190247376A1, “NICOTINIC ACETYLCHOLINE RECEPTOR AGONIST ATTENUATES ILC2-DEPENDENT AIRWAY HYPERREACTIVITY” (University of Southern California, priority 2016, published 2019)
